From US9974761B2, “Medications for deposition on biological surfaces” (The Procter & Gamble Company, priority 2014, dated 2018)

How the values were obtained:
[1] = Sensation reported by panelists; format: in vivo; conditions: perceived sensation, in words
human TRPM8 = assay: TRPM8 Protocol-FLIPR Assay (intracellular Ca2+); format: cell-based; conditions: for TRPM8 Time Course Activity 50 sec % of WS5 / TRPM8 Time Course Activity 3 min % of WS5 / TRPM8 Time Course Activity 5 min % of WS5 / TRPM8 Time Course Activity 10 min % of WS5: vs 30 uM WS-5; for TRPM8 Time Course Activity 3 min: fluorescence at 3 min; for TRPM8 Time Course Activity 5 min: fluorescence at 5 min; for TRPM8 Time Course Activity 10 min: fluorescence at 10 min
Procedure: To determine whether TRPM8 is activated, the intracellular calcium ion (Ca^2+) level was measured from transfected cells with the TRPM8 receptor sequence (SEQ ID NO: 3). HEK-293 (human embryonic kidney) cells stably transfected with human TRPM8 were grown in 15 ml growth medium (high glucose DMEM (Dulbecco's Modification of Eagle's Medium) supplemented with 10% FBS (fetal bovine serum), 100 ug/ml penicillin/streptomycin, 5 μg/ml blasticindin, and 100 μg/ml zeocin) in a 75 cm^2 flask for 3 days at 37° C. in a mammalian cell culture incubator set at 5% CO2 Cells were detached with addition of 2 ml of trypsin-EDTA buffer (GIBCO® 25200, Invitrogen, Grand Island, N.Y.) for about 2-3 min. Trypsin was inactivated by addition of 8 ml growth medium. Cells were transferred to a 50 ml tube and centrifuged at 850 rpm for 3 minutes to remove medium. After centrifugation, a pellet of cells was formed in the bottom of the tube separating them from the supernatant solution. The supernatant was discarded and the cell pellet was suspended in 1 ml of fresh growth medium to which 5 μl (12.5 μg) of Fluo-4 AM (Molecular Probes, Inc., Eugene, Oreg.) calcium indicator was added and incubated for 30 min with gentle shaking. Fluo-4 AM is a fluorescent dye used for quantifying cellular Ca^2+ concentrations in the 100 nM to 1 microM range. At the end of 30 minutes, 45 ml of assay buffer (1× HBSS (Hank's Balanced Salt Solution), 20 mM HEPES (4-(2-Hydroxyethyl)-1-piperazineethanesulfonic acid)) was added to wash cells and the resulting mixture was then centrifuged at 850 rpm for 3 minutes to remove excess buffer and Fluo-4 AM calcium indicator.
The pelleted cells were re-suspended in 10 ml assay buffer and 90 μl aliquots (˜50,000 cells) per well delivered to a 96-well assay plate containing 10 μl of test compounds (1 mM in assay buffer, […]) or buffer control and incubated at room temperature for 30 minutes. After 30 minutes, a plate was placed into a fluorometric imaging plate reader (FLIPR384 from Molecular Devices, Sunnyvale, Calif.) and basal fluorescence recorded (excitation wave length 488 nm and emission wave length 510 nm). Then 20 μl of […] of TRPM8 agonist WS5 coolant in the assay buffer was added and fluorescence recorded. For determining the direct effect of test compounds on TRPM8, fluorescence was measured immediately after addition of each compound (TABLES 2 and 3). Additional discussion of the FLIPR method can be found in Smart et al., Characterization using FLIPR of human vanilloid VR1 receptor pharmacology, European Journal of Pharmacology 417, 51-58 (2001) and Liu et al., Development and validation of a platelet calcium flux assay using a fluorescent imaging plate reader, Analytical Biochemistry 357, 216-224 (2006).
TRPM8 activation was determined by measuring intracellular calcium ion (Ca^2+) level from transfected cells with the TRPM8 receptor gene, as described in EXAMPLE 1, the results of which are shown in TABLES 4 and 5.

Structure (SMILES): CC(C)[C@@H]1CC[C@@H](C)C[C@H]1C(=O)NCC(NC(=O)[C@@H](C)N)c1ccccc1 (single isomer, unassigned) [Compound 28 fraction 1]
- sensation (cooling, warming, burning) [1]: intense cooling
- TRPM8 Time Course Activity 50 sec % of WS5 (human TRPM8; dose 6.1 nM): 8.8%
- TRPM8 Time Course Activity 3 min % of WS5 (human TRPM8; dose 6.1 nM): 36.5%
- TRPM8 Time Course Activity 5 min % of WS5 (human TRPM8; dose 6.1 nM): 46.7%
- TRPM8 Time Course Activity 10 min % of WS5 (human TRPM8; dose 6.1 nM): 56.1%
- TRPM8 Time Course Activity 3 min (human TRPM8; dose 6.1 nM): 3452.0
- TRPM8 Time Course Activity 5 min (human TRPM8; dose 6.1 nM): 4426.0
- TRPM8 Time Course Activity 10 min (human TRPM8; dose 6.1 nM): 5375.0
- TRPM8 Time Course Activity 50 sec % of WS5 (human TRPM8; dose 12.2 nM): 30.0%
- TRPM8 Time Course Activity 3 min % of WS5 (human TRPM8; dose 12.2 nM): 93.0%
- TRPM8 Time Course Activity 5 min % of WS5 (human TRPM8; dose 12.2 nM): 103.8%
- TRPM8 Time Course Activity 10 min % of WS5 (human TRPM8; dose 12.2 nM): 115.5%
- TRPM8 Time Course Activity 3 min (human TRPM8; dose 12.2 nM): 8783.0
- TRPM8 Time Course Activity 5 min (human TRPM8; dose 12.2 nM): 9830.0
- TRPM8 Time Course Activity 10 min (human TRPM8; dose 12.2 nM): 11065.0
- TRPM8 Time Course Activity 50 sec % of WS5 (human TRPM8; dose 24.4 nM): 19.2%
- TRPM8 Time Course Activity 3 min % of WS5 (human TRPM8; dose 24.4 nM): 67.8%
- TRPM8 Time Course Activity 5 min % of WS5 (human TRPM8; dose 24.4 nM): 80.2%
- TRPM8 Time Course Activity 10 min % of WS5 (human TRPM8; dose 24.4 nM): 92.7%
- TRPM8 Time Course Activity 3 min (human TRPM8; dose 24.4 nM): 6405.0
- TRPM8 Time Course Activity 5 min (human TRPM8; dose 24.4 nM): 7593.0
- TRPM8 Time Course Activity 10 min (human TRPM8; dose 24.4 nM): 8879.0
- TRPM8 Time Course Activity 50 sec % of WS5 (human TRPM8; dose 48.8 nM): 29.0%
- TRPM8 Time Course Activity 3 min % of WS5 (human TRPM8; dose 48.8 nM): 84.8%
- TRPM8 Time Course Activity 5 min % of WS5 (human TRPM8; dose 48.8 nM): 94.9%
- TRPM8 Time Course Activity 10 min % of WS5 (human TRPM8; dose 48.8 nM): 106.8%
- TRPM8 Time Course Activity 3 min (human TRPM8; dose 48.8 nM): 8017.0
- TRPM8 Time Course Activity 5 min (human TRPM8; dose 48.8 nM): 8983.0
- TRPM8 Time Course Activity 10 min (human TRPM8; dose 48.8 nM): 10224.0
- TRPM8 Time Course Activity 50 sec % of WS5 (human TRPM8; dose 97.6 nM): 39.4%
- TRPM8 Time Course Activity 3 min % of WS5 (human TRPM8; dose 97.6 nM): 103.1%
- TRPM8 Time Course Activity 5 min % of WS5 (human TRPM8; dose 97.6 nM): 113.1%
- TRPM8 Time Course Activity 10 min % of WS5 (human TRPM8; dose 97.6 nM): 125.4%
- TRPM8 Time Course Activity 3 min (human TRPM8; dose 97.6 nM): 9744.0
- TRPM8 Time Course Activity 5 min (human TRPM8; dose 97.6 nM): 10711.0
- TRPM8 Time Course Activity 10 min (human TRPM8; dose 97.6 nM): 12011.0
- TRPM8 Time Course Activity 50 sec % of WS5 (human TRPM8; dose 195 nM): 53.9%
- TRPM8 Time Course Activity 3 min % of WS5 (human TRPM8; dose 195 nM): 116.8%
- TRPM8 Time Course Activity 5 min % of WS5 (human TRPM8; dose 195 nM): 124.9%
- TRPM8 Time Course Activity 10 min % of WS5 (human TRPM8; dose 195 nM): 136.2%
- TRPM8 Time Course Activity 3 min (human TRPM8; dose 195 nM): 11037.0
- TRPM8 Time Course Activity 5 min (human TRPM8; dose 195 nM): 11824.0
- TRPM8 Time Course Activity 10 min (human TRPM8; dose 195 nM): 13046.0
- TRPM8 Time Course Activity 3 min % of WS5 (human TRPM8; dose 390 nM): 120.4%
- TRPM8 Time Course Activity 5 min % of WS5 (human TRPM8; dose 390 nM): 126.4%
- TRPM8 Time Course Activity 10 min % of WS5 (human TRPM8; dose 390 nM): 137.0%
- TRPM8 Time Course Activity 3 min (human TRPM8; dose 390 nM): 11373.0
- TRPM8 Time Course Activity 5 min (human TRPM8; dose 390 nM): 11968.0
- TRPM8 Time Course Activity 10 min (human TRPM8; dose 390 nM): 13121.0
- TRPM8 Time Course Activity 3 min % of WS5 (human TRPM8; dose 781 nM): 128.9%
- TRPM8 Time Course Activity 5 min % of WS5 (human TRPM8; dose 781 nM): 133.3%
- TRPM8 Time Course Activity 10 min % of WS5 (human TRPM8; dose 781 nM): 142.7%
- TRPM8 Time Course Activity 3 min (human TRPM8; dose 781 nM): 12182.0
- TRPM8 Time Course Activity 5 min (human TRPM8; dose 781 nM): 12618.0
- TRPM8 Time Course Activity 10 min (human TRPM8; dose 781 nM): 13661.0
- TRPM8 Time Course Activity 3 min % of WS5 (human TRPM8; dose 1.563 uM): 128.4%
- TRPM8 Time Course Activity 5 min % of WS5 (human TRPM8; dose 1.563 uM): 132.0%
- TRPM8 Time Course Activity 10 min % of WS5 (human TRPM8; dose 1.563 uM): 140.4%
- TRPM8 Time Course Activity 3 min (human TRPM8; dose 1.563 uM): 12135.0
- TRPM8 Time Course Activity 5 min (human TRPM8; dose 1.563 uM): 12499.0
- TRPM8 Time Course Activity 10 min (human TRPM8; dose 1.563 uM): 13440.0
- TRPM8 Time Course Activity 3 min % of WS5 (human TRPM8; dose 3.125 uM): 133.4%
- TRPM8 Time Course Activity 5 min % of WS5 (human TRPM8; dose 3.125 uM): 136.7%
- TRPM8 Time Course Activity 10 min % of WS5 (human TRPM8; dose 3.125 uM): 144.6%
- TRPM8 Time Course Activity 3 min (human TRPM8; dose 3.125 uM): 12602.0
- TRPM8 Time Course Activity 5 min (human TRPM8; dose 3.125 uM): 12939.0
- TRPM8 Time Course Activity 10 min (human TRPM8; dose 3.125 uM): 13850.0
- TRPM8 Time Course Activity 3 min % of WS5 (human TRPM8; dose 6.25 uM): 135.2%
- TRPM8 Time Course Activity 5 min % of WS5 (human TRPM8; dose 6.25 uM): 138.3%
- TRPM8 Time Course Activity 10 min % of WS5 (human TRPM8; dose 6.25 uM): 147.3%
- TRPM8 Time Course Activity 3 min (human TRPM8; dose 6.25 uM): 12775.0
- TRPM8 Time Course Activity 5 min (human TRPM8; dose 6.25 uM): 13098.0
- TRPM8 Time Course Activity 10 min (human TRPM8; dose 6.25 uM): 14102.0
- TRPM8 Time Course Activity 3 min % of WS5 (human TRPM8; dose 12.5 uM): 133.3%
- TRPM8 Time Course Activity 5 min % of WS5 (human TRPM8; dose 12.5 uM): 137.3%
- TRPM8 Time Course Activity 10 min % of WS5 (human TRPM8; dose 12.5 uM): 145.6%
- TRPM8 Time Course Activity 3 min (human TRPM8; dose 12.5 uM): 12591.0
- TRPM8 Time Course Activity 5 min (human TRPM8; dose 12.5 uM): 12997.0
- TRPM8 Time Course Activity 10 min (human TRPM8; dose 12.5 uM): 13947.0
- TRPM8 Time Course Activity 3 min % of WS5 (human TRPM8; dose 25 uM): 137.8%
- TRPM8 Time Course Activity 5 min % of WS5 (human TRPM8; dose 25 uM): 141.0%
- TRPM8 Time Course Activity 10 min % of WS5 (human TRPM8; dose 25 uM): 149.8%
- TRPM8 Time Course Activity 3 min (human TRPM8; dose 25 uM): 13020.0
- TRPM8 Time Course Activity 5 min (human TRPM8; dose 25 uM): 13354.0
- TRPM8 Time Course Activity 10 min (human TRPM8; dose 25 uM): 14341.0
- TRPM8 Time Course Activity 3 min % of WS5 (human TRPM8; dose 50 uM): 130.1%
- TRPM8 Time Course Activity 5 min % of WS5 (human TRPM8; dose 50 uM): 133.7%
- TRPM8 Time Course Activity 10 min % of WS5 (human TRPM8; dose 50 uM): 137.5%
- TRPM8 Time Course Activity 3 min (human TRPM8; dose 50 uM): 12295.0
- TRPM8 Time Course Activity 5 min (human TRPM8; dose 50 uM): 12654.0
- TRPM8 Time Course Activity 10 min (human TRPM8; dose 50 uM): 13169.0
- TRPM8 Time Course Activity 3 min % of WS5 (human TRPM8; dose 100 uM): 132.5%
- TRPM8 Time Course Activity 5 min % of WS5 (human TRPM8; dose 100 uM): 135.7%
- TRPM8 Time Course Activity 10 min % of WS5 (human TRPM8; dose 100 uM): 137.7%
- TRPM8 Time Course Activity 3 min (human TRPM8; dose 100 uM): 12520.0
- TRPM8 Time Course Activity 5 min (human TRPM8; dose 100 uM): 12844.0
- TRPM8 Time Course Activity 10 min (human TRPM8; dose 100 uM): 13187.0
